Patent publication US8822754B2, “Ecdysone receptor-based inducible gene expression system” (Intrexon Corporation, priority 2000, dated 2014)

Tests used:
[1] = test system: CfVgRXR + MmRXR; experiment: Transactivation of reporter genes through switch 1.9 in 3T3 cells; assay type: cell-based, Choristoneura fumiferana; settings: switch 1.9 CfVgRXR + MmRXR, pIND(SP1)LacZ
Description: This example was prepared in the same way as switch 1.8 except DinEcR was replaced with a truncated CfEcR comprising a partial A/B domain and the complete CDEF domains [SEQ ID NO: 62 (polynucleotide) and SEQ ID NO: 63 (polypeptide)].
(§1) The cells were plated when they reached 50% confluency.
(§2) Cells were harvested 24-48 hr after adding ligands. […] Twenty μl of lysate was assayed.

[2] = test system: GAL4EcR + VP16USP; experiment: Transactivation of reporter genes through switch 1.2 in CHO cells; assay type: cell-based, Choristoneura fumiferana; settings: switch 1.2 GAL4EcR + VP16USP, pGAL4RELuc
Description: This construct was prepared in the same way as in switch 1.1 above except MmRXRDEF was replaced with the D, E and F domains from spruce budworm USP (“CfUSPDEF”; SEQ ID NO: 58). The constructs used in this example are similar to those disclosed in U.S. Pat. No. 5,880,333 except that Choristoneura fumiferana USP rather than Drosophila melanogaster USP was utilized.
(§3) The cells were harvested and reporter activity was assayed.
as §2

[3] = test system: CfVgRXR; experiment: Transactivation of reporter genes through switch 1.10 in 293 cells; assay type: cell-based, Choristoneura fumiferana; settings: switch 1.10 CfVgRXR, pIND(SP1)LacZ
Description: This example was prepared in the same way as switch 1.9 except MmRXR (SEQ ID NO: 53) was deleted.
(§4) The same procedures described for CHO were followed for 293 cells except that the cells were plated in biocoated plates to avoid clumping.
as §2

[4] = target: T1, GAL4RXR + VP16DmEcR (Drosophila melanogaster, UniProt P34021); experiment: Transactivation of reporter genes through switch 1.4 in CV1 cells; assay type: cell-based; parameters: expressed in transfected cells; host or cells: CV1 cells (transient co-transfection); settings: switch 1.4 GAL4RXR + VP16DmEcR, pGAL4RELuc
T1 sequence (P34021 254-878): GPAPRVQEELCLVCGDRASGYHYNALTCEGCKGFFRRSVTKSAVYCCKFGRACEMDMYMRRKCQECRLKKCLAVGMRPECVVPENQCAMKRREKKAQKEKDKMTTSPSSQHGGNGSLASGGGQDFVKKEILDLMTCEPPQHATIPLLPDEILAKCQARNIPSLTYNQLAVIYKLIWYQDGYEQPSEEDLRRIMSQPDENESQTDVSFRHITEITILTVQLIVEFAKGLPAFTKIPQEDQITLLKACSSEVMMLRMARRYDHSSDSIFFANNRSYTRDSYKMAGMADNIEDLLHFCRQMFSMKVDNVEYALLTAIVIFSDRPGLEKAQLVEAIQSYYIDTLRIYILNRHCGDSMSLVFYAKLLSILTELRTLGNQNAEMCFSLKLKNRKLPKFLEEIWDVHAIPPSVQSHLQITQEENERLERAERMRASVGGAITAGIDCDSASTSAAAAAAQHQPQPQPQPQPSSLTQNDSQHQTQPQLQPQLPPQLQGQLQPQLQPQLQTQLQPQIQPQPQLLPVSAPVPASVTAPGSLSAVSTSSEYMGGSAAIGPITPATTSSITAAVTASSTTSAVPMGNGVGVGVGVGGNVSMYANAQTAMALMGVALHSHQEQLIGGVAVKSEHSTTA
T1 sequence (P28700 206-467 partner limits assumed): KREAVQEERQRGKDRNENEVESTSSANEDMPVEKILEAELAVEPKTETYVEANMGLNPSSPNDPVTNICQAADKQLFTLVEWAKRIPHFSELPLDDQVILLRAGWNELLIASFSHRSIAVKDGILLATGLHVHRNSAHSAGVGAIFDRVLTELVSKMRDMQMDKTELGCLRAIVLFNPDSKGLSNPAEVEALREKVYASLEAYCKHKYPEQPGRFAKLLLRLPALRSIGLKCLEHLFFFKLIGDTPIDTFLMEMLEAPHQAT
Description: (§5) This construct was prepared in the same way as switch 1.3 except CfEcRCDEF was replaced with DmEcRCDEF (SEQ ID NO: 6).
(§6) The same procedures described for NIH3T3 cells were followed for CV1 cells
as §2

[5] = target: T1, GAL4RXR + VP16DmEcR; experiment: Transactivation of reporter genes through switch 1.4 in 3T3 cells; assay type: cell-based; settings: switch 1.4 GAL4RXR + VP16DmEcR, pGAL4RELuc
Description: as §5, §1, §2

[6] = test system: VP16CfEcR; experiment: Transactivation of reporter genes through switch 1.7 in 3T3 cells; assay type: cell-based, Choristoneura fumiferana; settings: switch 1.7 VP16CfEcR, pEcRELuc
Description: Six ecdysone response elements (“EcRE”; SEQ ID NO: 59) from the hsp27 gene were placed upstream of the promoter and a luciferase gene (SEQ ID NO: 57). This switch most probably uses endogenous RXR.
as §1, §2

[7] = test system: GAL4EcR + VP16RXR; experiment: Transactivation of reporter genes through switch 1.1 in CHO cells; assay type: cell-based, Choristoneura fumiferana; settings: switch 1.1 GAL4EcR + VP16RXR, pGAL4RELuc
Description: as §3, §2

[8] = target: T1, GAL4RXR + VP16DmEcR; experiment: Transactivation of reporter genes through switch 1.4 in 293 cells; assay type: cell-based; parameters: expressed in transfected cells; host or cells: 293 cells (transient co-transfection); settings: switch 1.4 GAL4RXR + VP16DmEcR, pGAL4RELuc
Description: as §5, §4, §2

[9] = test system: GAL4USP + VP16CfEcR; experiment: Transactivation of reporter genes through switch 1.5 in 3T3 cells; assay type: cell-based, Choristoneura fumiferana; settings: switch 1.5 GAL4USP + VP16CfEcR, pGAL4RELuc
Description: This construct was prepared in the same way as switch 1.3 except MmRXRDEF was replaced with CfUSPDEF (SEQ ID NO: 58).
as §1, §2

[10] = test system: GAL4CfEcRVP16; experiment: Transactivation of reporter genes through switch 1.6 in CV1 cells; assay type: cell-based, Choristoneura fumiferana; settings: switch 1.6 GAL4CfEcRVP16, pGAL4RELuc
Description: This construct was prepared so that both the GAL4 DNABD and the VP16AD were placed on the same molecule. GAL4DNABD (SEQ ID NO: 41) and VP16AD (SEQ ID NO: 45) were fused to CfEcRDEF (SEQ ID NO: 3) at N- and C-termini respectively.
as §6, §2

CCc1c(OC)cccc1C(=O)NN(C(=O)c1cc(C)cc(C)c1)C(C)(C)C [N-(2-ethyl-3-methoxybenzoyl)-N′-(3,5-dimethylbenzoyl)-N′-tert-butylhydrazine]
Mean Fold Activation Through N-(2-ethyl-3-methoxybenzoyl)-N′-(3,5-dimethylbenzoyl)-N′-t-butylhydrazine [1]: 19 fold | Mean Fold Activation with 50 μM N-(2-ethyl-3-methoxybenzoyl)-N′-(3,5-dimethylbenzoyl)-N′-t-butylhydrazine [2]: 2 fold | Mean Fold Activation Through N-(2-ethyl-3-methoxybenzoyl)-N′-(3,5-dimethylbenzoyl)-N′-t-butylhydrazine [3]: 3 fold | Mean Fold Activation Through N-(2-ethyl-3-methoxybenzoyl)-N′-(3,5-dimethylbenzoyl)-N′-t-butylhydrazine [4]: 80 fold | Mean Fold Activation Through N-(2-ethyl-3-methoxybenzoyl)-N′-(3,5-dimethylbenzoyl)-N′-t-butylhydrazine [5]: 269 fold | Mean Fold Activation Through N-(2-ethyl-3-methoxybenzoyl)-N′-(3,5-dimethylbenzoyl)-N′-t-butylhydrazine [6]: 1 fold | Mean Fold Activation with 50 μM N-(2-ethyl-3-methoxybenzoyl)-N′-(3,5-dimethylbenzoyl)-N′-t-butylhydrazine [7]: 267 fold | Mean Fold Activation Through N-(2-ethyl-3-methoxybenzoyl)-N′-(3,5-dimethylbenzoyl)-N′-t-butylhydrazine [8]: 3 fold | Mean Fold Activation Through N-(2-ethyl-3-methoxybenzoyl)-N′-(3,5-dimethylbenzoyl)-N′-t-butylhydrazine [9]: 3 fold | Mean Fold Activation Through N-(2-ethyl-3-methoxybenzoyl)-N′-(3,5-dimethylbenzoyl)-N′-t-butylhydrazine [10]: 6 fold
